Measurements taken from patent US8829195B2, “Compounds and compositions for inhibiting the activity of ABL1, ABL2 and BCR-ABL1” (Novartis AG, priority 2012, dated 2014).

Tests used:
KCL-22 xenograft [1] = experiment: In vivo efficacy in KCL-22 xenograft model, single agent treatment; design: species or system mouse
Description: In Vivo Efficacy in KCL-22 Xenograft Model—Single Agent Treatment Compounds of the invention were dosed orally in a mouse KCL-22 xenograft model for 7 days. 6-8 week old female nude mice purchased from Harlan (Indianapolis Ind.) were implanted subcutaneously with 5×10^6 KCL-22 cells in 50% matrigel (BD Biosciences, #354234) in the right dorsal axillary region. […] Compounds of the invention in phosphate buffered saline were prepared weekly and dosed by oral gavage at 3-30 mg/kg twice daily (n=6 mice per dose level). Tumor volume was determined by twice weekly digital calipering and calculated as Length×Width^2/2.

KCL-22 xenograft [2] = experiment: In vivo efficacy in KCL-22 xenograft model, dual agent treatment; design: species or system mouse
Description: In Vivo Efficacy in KCL-22 Xenograft Model—Dual Agent Treatment 6-8 week old female nude mice purchased from Harlan (Indianapolis Ind.) were implanted subcutaneously with 2×10^6 KCL-22 cells in 50% matrigel (BD Biosciences, #354234) in the right dorsal axillary region. […] Compounds of the invention in a phosphate-buffered saline solution were prepared weekly and dosed by oral gavage at 30 mg/kg twice daily, and Nilotinib solution was dosed at 75 mg/kg twice daily. Animals received either single agent alone or combination of both simultaneously. Tumor volume was determined by twice weekly digital calipering and calculated as Length×Width^2/2.

[3] = Estimation of human PK parameters and efficacious dose from in vivo PK; details: estimated from in vivo PK
Description: In vivo PK parameters can be utilized for the estimation of human PK parameters. Applying various methods known in the art for prediction of human PK, the predicted human clearance can be estimated.

ABL1 (64-515) [4] = target: T1, ABL1 (64-515) (Homo sapiens, UniProt P00519); experiment: Radio ABL1 (64-515) radiometric filter-binding assay; type: biochemical
T1 construct: 3.5 nM ABL (ABL(64-515), produced in-house from E. coli); His6 followed by a PreScission protease cleavage site (N, cleaved yes); made in house; host or cells: E. coli (BL21 (DE3) according to b733)

Ba/F3-BCR-ABL1-WT cells = target: T2, Ba/F3-BCR-ABL1-WT cells (Homo sapiens, UniProt P00519); experiment: Ba/F3-BCR-ABL1-WT cell proliferation assay; type: cell-based, murine; details: 48 hours; read-out: Ba/F3-BCR-ABL1-WT IC50
T2 construct: fused on or other part: P11274 (Breakpoint cluster region protein)

ABL1 (64-515) [5] = target: T1, ABL1 (64-515); experiment: Caliper ABL1 (64-515) microfluidic mobility shift assay; type: biochemical; details: Table of Biochemical Data
[6] = target: T3, Ba/F3-BCR-ABL1-T315I cells (Homo sapiens, UniProt P00519, T315I, cells depend on it); experiment: Ba/F3-BCR-ABL1-T315I cell proliferation assay; type: cell-based, murine; details: 48 hours; read-out: Ba/F3-BCR-ABL1-T315I IC50
T3 construct: A similar approach was used to generate Ba/F3 cells that depend on a BCR-ABL1 variant in which threonine 315 is replaced with isoleucine; fused on or other part: P11274 (Breakpoint cluster region protein)

Row | IC50 (ABL1 (64-515) [4]) [nM] | GI50 (Ba/F3-BCR-ABL1-WT cells) [nM] | IC50 (ABL1 (64-515) [5]) [nM] | GI50 [6] [nM] | SMILES | further results
1 | – | – | – | – | O=C(Nc1ccc(OC(F)(F)Cl)cc1)c1cnc(N2CC[C@@H](O)C2)c(-c2ccn[nH]2)c1 [Example 9, (R)—N-(4-(Chlorodifluoromethoxy)phenyl)-6-(3-hydroxypyrrolidin-1-yl)-5-(1H-pyrazol-5-yl)nicotinamide] | tumor growth inhibition compared to vehicle-treated mice (KCL-22 xenograft [1]; 3 mg/kg twice daily, oral, 7 days): 45%; tumor regression (KCL-22 xenograft [1]; 7.5 mg/kg twice daily, oral, 7 days): 56%; tumor regression (KCL-22 xenograft [1]; 15 mg/kg twice daily, oral, 7 days): 88%; tumor regression (KCL-22 xenograft [1]; 30 mg/kg twice daily, oral, 7 days): 92%; antitumor activity (FIG. 2) (KCL-22 xenograft [1]; daily treatment, subcutaneous KCL-22 xenografts): Dose-dependent antitumor activity; response of nilotinib resistant tumors (FIG. 3) (KCL-22 xenograft [2]; 30 mg/kg BID after resistance to 75 mg/kg Nilotinib BID): regression of the tumors; predicted human clearance [3]: 3 mL/min/kg; Vd ([3]; human, read-out: volume of distribution (human, estimated)): 1 L/kg
2 | 1 | 4 | 1.3 | 149 | NC[C@@H]1CCN(c2ncc(C(=O)Nc3ccc(OC(F)(F)Cl)cc3)cc2-c2ccn[nH]2)C1 [Example 21, (S)-6-(3-(Aminomethyl)pyrrolidin-1-yl)-N-(4-(chlorodifluoromethoxy)phenyl)-5-(1H-pyrazol-5-yl)nicotinamide] | –
3 | 7 | 1.7 | 0.5 | 42 | Cc1cc(-c2cc(C(=O)Nc3ccc(OC(F)(F)Cl)cc3)cnc2N2CC[C@@H](O)C2)[nH]n1 [Example 23, (R)—N-(4-(Chlorodifluoromethoxy)phenyl)-6-(3-hydroxypyrrolidin-1-yl)-5-(3-methyl-1H-pyrazol-5-yl)nicotinamide] | –
4 | 5 | 1.1 | 0.4 | 22 | O=C(Nc1ccc(OC(F)(F)Cl)cc1)c1ccc(N2CC[C@@H](O)C2)c(-c2[nH]ncc2F)c1 [Example 24, (R)—N-(4-(Chlorodifluoromethoxy)phenyl)-3-(4-fluoro-1H-pyrazol-5-yl)-4-(3-hydroxypyrrolidin-1-yl)benzamide] | –
5 | 12 | 9 | 10.4 | 227 | O=C(Nc1ccc(OC(F)(F)Cl)cc1)c1cnc(N2CC[C@@H](O)C2)c(-c2cc(C(F)(F)F)n[nH]2)c1 [Example 26, (R)—N-(4-(Chlorodifluoromethoxy)phenyl)-6-(3-hydroxypyrrolidin-1-yl)-5-(3-(trifluoromethyl)-1H-pyrazol-5-yl)nicotinamide] | –
6 | 2.8 | 7.5 | 1.9 | 150 | Cn1ccc(-c2cc(C(=O)Nc3ccc(OC(F)(F)Cl)cc3)cnc2N2CC[C@@H](O)C2)n1 [Example 28, (R)—N-(4-(Chlorodifluoromethoxy)phenyl)-6-(3-hydroxypyrrolidin-1-yl)-5-(1-methyl-1H-pyrazol-3-yl)nicotinamide] | –
7 | 0.4 | 31.8 | 4.3 | 715 | CC(F)(F)Oc1ccc(NC(=O)c2cnc(N3CC[C@@H](O)C3)c(-c3ccn[nH]3)c2)cc1 [Example 30, (R)—N-(4-(1,1-Difluoroethoxy)phenyl)-6-(3-hydroxypyrrolidin-1-yl)-5-(1H-pyrazol-5-yl)nicotinamide] | –
8 | 1 | 4.1 | 2.5 | 133 | O=C(Nc1ccc(C(F)(F)C(F)(F)Cl)cc1)c1cnc(N2CC[C@@H](O)C2)c(-c2ccn[nH]2)c1 [Example 31, (R)—N-(4-(2-Chloro-1,1,2,2-tetrafluoroethyl)phenyl)-6-(3-hydroxypyrrolidin-1-yl)-5-(1H-pyrazol-5-yl)nicotinamide] | –
9 | 6 | 1.5 | 0.6 | 32 | Cc1cn[nH]c1-c1cc(C(=O)Nc2ccc(OC(F)(F)Cl)cc2)cnc1N1CC[C@@H](O)C1 [Example 33, (R)—N-(4-(Chlorodifluoromethoxy)phenyl)-6-(3-hydroxypyrrolidin-1-yl)-5-(4-methyl-1H-pyrazol-5-yl)nicotinamide] | –
10 | – | – | – | – | Cc1cn(-c2cc(NC(=O)c3ccc(C)c(Nc4nccc(-c5cccnc5)n4)c3)cc(C(F)(F)F)c2)cn1 [nilotinib] | tumor regression (KCL-22 xenograft [1]; 75 mg/kg twice daily, positive control): 82%; tumor regression (KCL-22 xenograft [2]; nilotinib alone 75 mg/kg twice daily, after 4 week daily treatment): > 84%; tumor volume on relapse (KCL-22 xenograft [2]; nilotinib alone, after the 4 week response, most tumors): > 500 mm^3
